Reference: US9540640B2, “Compositions and methods for inhibiting hypdxia induced damage” (Health Research, Inc., priority 2012, dated 2017)

system: HK-2 cells; assay: Combined inhibition of RhoB (shRNA) and TACR1 (L-733,060): HK-2 survival in hypoxia; type: cell-based; settings: L-733,060 5 μM on HK2-RhoB cells (shRNA to RhoB) vs either one alone; 0.2% oxygen 48 hours; FIG. 9
Method: To obtain the data presented in FIG. 9, HK-2 cells were trasnduced with either a construct expressing an shRNA to RhoB (cell line “HK2-RhoB”) or the corresponding empty vector (cell line “HK2-vector”). The survival of cells in hypoxic condition with or without addition of TACR1 inhibitor was evaluated using the following protocol: Day 0: HK-2 cells were seeded on two 96-well plates, 3×10^4 cells/well. Day 1: Keratinocyte medium was removed from the plates and fresh DMEM containing low glucose. TACR1 inhibitor (L-733,060; 5 μM) was added to half of the wells of either HK2-RhoB or HK2-vector. One hour later one of the plates was transported to a chamber that contained 0.2% oxygen for 48 hours, while the other remained at normoxia for the same period of time. Day 3: The cells were rescued from hypoxia and the plates were immediate fixed and stained with methylene blue to assess survival. Results were then graphed as the percent of stain of the corresponding cells incubated in normoxic conditions minus the background (non-specific dye absorption by empty wells).

Compound	protection from hypoxia, combined inhibition of RhoB and TACR1
FC(F)(F)c1cc(CO[C@H]2CCCN[C@H]2c2ccccc2)cc(C(F)(F)F)c1 [L-733,060, (2S,3S)-3-{[3,5-bis(trifluoromethyl)benzyl]oxy}-2-phenylpiperidine]	better protection that inhibition of either one alone

system: hRPTEC cells; assay: TACR1 inhibitor: survival of hRPTEC cells under hypoxia; type: cell-based; settings: 0.2% oxygen 48 hours, low glucose DMEM, inhibitor added 1 hour before; methylene blue; FIG. 7
Method: The following protocol was used: Day 0: hRPTEC were seeded on two 96-well plates, 2×10^4 cells/well. Day 1: Keratinocyte medium was removed from the plates and fresh DMEM containing low glucose and the indicated concentration of the TACR1 inhibitor (L-733,060) was added. Each concentration was examined in quadruplicate fashion. The two plates were incubated in the presence of the inhibitor at normal growth conditions for 1 hour, at which time one of the plates was transported to a chamber that contained 0.2% oxygen for 48 hours, while the other remained at normoxia for the same period of time. Day 3: The cells were rescued from hypoxia and the plates were immediate fixed and stained with methylene blue to assess survival. The percent of stain of the corresponding cells incubated in normoxic conditions minus the background (non-specific dye absorption by empty wells) was calculated as a measure of cell resistance to the hypoxia. The results were plotted as a fold increase in resistance over that of cells not treated with L-733,060.

Compound	survival of hRPTEC cells under hypoxia
FC(F)(F)c1cc(CO[C@H]2CCCN[C@H]2c2ccccc2)cc(C(F)(F)F)c1 [L-733,060, (2S,3S)-3-{[3,5-bis(trifluoromethyl)benzyl]oxy}-2-phenylpiperidine]	significantly increases survival

system: HKC8 cells; assay: TACR1 inhibitor: protection of HKC8 cells under hypoxia; type: cell-based; settings: 5 μM, 0.2% oxygen 48 hours, low glucose DMEM; methylene blue; FIG. 11
Method: We also tested the protective activity of a chemical TACR1 inhibitor in HKC8 cells using the following protocol. Day 0: HKC8 cells were seeded in complete keratinocyte medium at a density of 2×10^4 cells per well on two 96-well plates. Day 1: Keratinocyte medium was removed from the plates and fresh DMEM containing low glucose and 5 μM TACR1 inhibitor (L-733,060) was added where indicated. Treated and untreated cells were present on the plates in triplicate. The two plates were incubated in the presence of the inhibitor at normal growth conditions for 1 hour, at which time one of the plates was transported to a chamber that contained 0.2% oxygen for 48 hours, while the other remained at normoxia for the same duration. Day 3: Following exposure to hypoxia, the cells were rescued and the plates were immediately fixed and stained with methylene blue to assess survival. Results were then graphed as the percent of stain of the corresponding cells incubated in normoxic conditions minus the background (non-specific dye absorption by empty wells).

Compound	protection against the effects of hypoxia on HKC8 cells
FC(F)(F)c1cc(CO[C@H]2CCCN[C@H]2c2ccccc2)cc(C(F)(F)F)c1 [L-733,060, (2S,3S)-3-{[3,5-bis(trifluoromethyl)benzyl]oxy}-2-phenylpiperidine]	strongly protective

system: kidneys; assay: Mouse model of acute renal ischemia, plasma markers of kidney damage; type: in vivo; settings: i.p. 30 mg/kg or 90 mg/kg 30 minutes before 25 min ischemia of both kidneys, 24 hrs after reperfusion, FIG. 8
Method: In particular, the protective effects of chemically inhibiting TACR1 were examined in a mouse model of acute renal ischemia using the following protocol: i. 30 minutes before the surgery, mice received an i.p. injection of a TACR1 inhibitor (L-733,060) at either 30 mg/kg or 90 mg/kg, or of the respective vehicle (saline). ii. Under general anesthesia with Ketamin/Rompun, the mice were subjected to 25 min of ischemic of both kidneys. Each of the 2 kidneys was exposed through a flank incision. The kidney pedicle was clamped with atraumatic clamps for 25 min. iii. Mice were kept in an incubator at constant temperature 36 C during the 25 min of ischemia. After 25 min of ischemia, clamps were removed and wounds were closed. iv. 24 hrs after reperfusion blood samples were taken and mice were sacrificed. v. The levels of biochemical markers of kidney damage were measured in the plasma of the collected blood. Specifically, creatinine, neutrophil gelatinase-associated lipocalin (NGAL), osteopontin and urea (blood urea nitrogen) were measured.

Compound	signs of kidney damage (plasma creatinine, NGAL, osteopontin, urea)
FC(F)(F)c1cc(CO[C@H]2CCCN[C@H]2c2ccccc2)cc(C(F)(F)F)c1 [L-733,060, (2S,3S)-3-{[3,5-bis(trifluoromethyl)benzyl]oxy}-2-phenylpiperidine]	decreases the appearance of signs of kidney damage

system: HK-2 cells; assay: Individual shRNA screening: survival of transduced HK-2 cells under hypoxia (Protocol 2); type: cell-based, human; settings: viable shRNA-transduced HK-2 cells after hypoxia (0.2% oxygen 48 hours, low glucose DMEM) vs control HK-2 cells; 2-6 independent experiments; methylene blue
Excerpt: shRNA of the invention can be expressed from any suitable vector such as a recombinant viral vector either as two separate, complementary RNA molecules, or as a single RNA molecule with two complementary regions. In this regard, any viral vector capable of accepting the coding sequences for the shRNA molecule(s) to be expressed can be used. Examples of suitable vectors include but are not limited to vectors derived from adenovirus, adeno-associated virus, retroviruses (e.g, lentiviruses, Rhabdoviruses, murine leukemia virus), herpes virus, and the like. A preferred virus is a lentivirus. The tropism of the viral vectors can also be modified by pseudotyping the vectors with envelope proteins or other surface antigens from other viruses. As an alternative to expression of shRNA in cells from a recombinant vector, chemically stabilized shRNA or siRNAs may also be used administered as the agent in the method of the invention. Vectors for expressing shRNA which in turn produces siRNA once introduced into a cell are commercially available. Further, shRNAs which facilitate produce of siRNA targeted to virtually every known human gene are also known and are commercially available. In embodiments specific shRNAs are those which comprise polynucleotide sequences presented in Table 2, wherein those sequences are targeted to the genes as indicated. In particular, Table 2 provides the sequence of segments of shRNAs that target the HRGs of the present disclosure. […] “RPCI” under source designates the “shRNA Resource of Roswell Park Cancer Institute” which distributes shRNAs from commercial vendors. The catalog # column signifies a reference under which each of the shRNAs are made available to the public. The SEQ ID # column refers to the sequence listing that forms a part of this disclosure. The polynucleotide sequences provided in Table 2 are cDNA sequences that recognize the target gene mRNA via shRNA. It will be recognized by those skilled in the art that the shRNAs used in the Examples presented herein have the identical sequences as listed in Table 2, except for substitution of each thymine with uracil. It will be also recognize that each of the shRNAs as used in practice has additional sequences that are typical of shRNA constructs, but that the sequences listed in Table 2 are the ones that are antisense to the mRNA of the indicated HRGs.
Protocol 2: Individual shRNA screening.
Cell Preparation: Lentiviral vectors containing various shRNAs of interest were obtained from commercial sources, and packaged in 293T cells. HK-2 cells were then transduced with these expression constructs and selected for the presence of a vector-encoded antibiotic resistance marker.
Hypoxia Protocol: Day 0: HK-2 cells containing individual shRNAs were seeded in triplicate on two 96-well plates, 3×10^4 cells/well. Negative controls included uninfected cells or cells infected with a corresponding empty vector. Day 1: Keratinocyte medium was removed from the plates and fresh DMEM containing low glucose was added. One of the plates was then transported to a chamber that contained 0.2% oxygen for 48 hours, while the other remained at normoxia for the same period of time. Day 3: The cells were rescued from hypoxia and the plates were immediate fixed and stained with methylene blue to assess survival. Results were then graphed as the percent of stain of the corresponding cells incubated in normoxic conditions minus the background (non-specific dye absorption by empty wells).

Compound	geometric mean of fold increase in cell number [fold]
18 (ATTGGTTTGATTTCCTCCC; expressed or natural sequence) [compound 18]	18
26 (TTCCAGTAGAAGTAGTACT; expressed or natural sequence) [compound 26]	12
15 (ATGACATTGATCTGATCCA; expressed or natural sequence) [compound 15]	23
11 (TCTTGCCAAGGTTTATGGC; expressed or natural sequence) [compound 11]	8
12 (ATCTCTTTGGACTTGAAGC; expressed or natural sequence) [compound 12]	9
17 (AAACGCTAAAGATGAGTCC; expressed or natural sequence) [compound 17]	7
24 (TTCTTGTAAATAATGAGCG; expressed or natural sequence) [compound 24]	5
21 (TTACTGAACACGATCAGCAGG; expressed or natural sequence) [compound 21]	22
25 (TTCTCATAAATCTTGTTCG; expressed or natural sequence) [compound 25]	15
13 (TGATGTCTGGTGTAGTAGG; expressed or natural sequence) [compound 13]	10
20 (TCTTCTAAGCACTGAAGAG; expressed or natural sequence) [compound 20]	11
22 (TACTGAACACGATCAGCAG; expressed or natural sequence) [compound 22]	9
27 (TTGGATCTGTAAAGACGCCAC; expressed or natural sequence) [compound 27]	5
19 (AACATGTTCATAACCAGGTCG; expressed or natural sequence) [compound 19]	26
14 (ATCTCCTGAATATTTCAGCAG; expressed or natural sequence) [compound 14]	13
16 (TCTTCAACAGAATCCACTT; expressed or natural sequence) [compound 16]	6
23 (ATAAATATCTGTTCCCAAG; expressed or natural sequence) [compound 23]	15
